Converted amounts (≈) assume the structure as drawn. Like-named read-outs stand apart in the source and are kept apart here. Numbered stars: 1 amine (or outer) side, 2 acyl side, 3 side chain; on linkers, the order of the positions; unused ones are H or OH. Bridge positions count the residues as written; N and C are the ends. Square brackets hold non-standard residues; d marks the D form. Peptide text beside a SMILES is read from it. * marks the point of attachment. Piperazine(2S-CO,4-Me) = CN1CCN[C@H](C(=O)O)C1; Phe(3,5-Me2) = Cc1cc(C)cc(C[C@H](N)C(=O)O)c1; X6 = O=C([C@@H]1CS(=O)(=O)CCN1[*:1])[*:2]; Phe(3-Me) = Cc1cccc(C[C@H](N)C(=O)O)c1; NH(4-Cl-2-F-phenyl) = Fc1cc(Cl)ccc1N*; Pro(4R-Me) = C[C@H]1CN[C@H](C(=O)O)C1; Hyp = O=C(O)[C@@H]1C[C@@H](O)CN1; NH(4-Me-phenyl) = Cc1ccc(N*)cc1; aThr = C[C@H](O)[C@H](N)C(=O)O; Pip = O=C(O)[C@@H]1CCCCN1; CO = O=C([*:1])[*:2]; X2 = Fc1cc(N*)ccc1Cl
Assays:
[1] = Plasma stability assay; type: in vitro ADME, mouse
Summary of the method: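 Compounds at 10 μM final in human or mouse plasma, incubated at 37 °C and sampled at 0, 3, 24 and 48 h in triplicate. Reactions quenched with cold acetonitrile containing warfarin internal standard; parent measured by LC-MS. Half-life from least-squares first-order fit.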

[2] = Solubility determination; type: physicochemical; settings: for solubility kinetic at 10 min: 22 °C, aqueous buffer, kinetic from dmso stock
Summary of the method: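 DMSO stock spiked into DPBS at 100 µM final, in triplicate, shaken 10 min, then centrifuged 20 min at 22 °C. Supernatant quantified by UPLC-UV and single-ion-recording MS against DMSO calibration standards (0.098–100 µM), using 1/x²-weighted linear regression.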

[3] = Microsomal metabolic stability; type: in vitro ADME, human
[4] = plasma stability half-life, mouse plasma, 37° C.
[5] = solubility in DPBS, 100 μM test samples, LCMS, read-out: LCMS
[6] = microsomal metabolic stability half-life, human liver microsomes

## Cc1ccc(NC(=O)N[C@@H](Cc2cccc(C)c2)C(=O)N[C@@H]2C(=O)N3C[C@H](O)C[C@H]3C(=O)N3CCCC[C@H]3C(=O)N[C@@H](C)C(=O)N3C[C@H](C)C[C@H]3C(=O)O[C@H]2C)cc1 [Compound 26, (S)—N-((2R,6S,8AS,14AS,16R,20S,21S,23AS)-16-HYDROXY-2,6,21-TRIMETHYL-5,8,14,19,23-PENTAOXOOCTADECAHYDRO-1H,5H,14H,19H-PYRIDO[2,1-I]DIPYRROLO[2,1-C:2′,1′-L][1]OXA[4,7,10,13]TETRAAZACYCLOHEXADECIN-20-YL)-3-(M-TOLYL)-2-(3-(P-TOLYL)UREIDO)PROPANAMIDE] ({NH(4-Me-phenyl)-CO}-[Phe(3-Me)][aThr][Hyp][Pip]A[Pro(4R-Me)]; ester 2-C)
[1]; [4]
  Mouse: >50 h
[2]; [5]
  solubility kinetic at 10 min: 45.3 ± 1.89 µM (≈ 36.3 µg/mL)
[2]; solubility
  μsol (μM): 47.7 ± 0.4 µM
[3]; [6]
  Human – 2.66 ± 0.3 h

## Cc1cc(C)cc(C[C@H](NC(=O)Nc2ccc(Cl)cc2F)C(=O)N[C@@H]2C(=O)N3CCC[C@H]3C(=O)N3CCCC[C@H]3C(=O)N[C@@H](C)C(=O)N3C[C@H](C)C[C@H]3C(=O)O[C@H]2C)c1 [Compound 4, (S)-2-(3-(4-CHLORO-2-FLUOROPHENYL)UREIDO)-3-(3,5-DIMETHYLPHENYL)-N-((2R,6S,8AS,14AS,20S,21S,23AS)-2,6,21-TRIMETHYL-5,8,14,19,23-PENTAOXOOCTADECAHYDRO-1H,5H,14H,19H-PYRIDO[2,1-I]DIPYRROLO[2,1-C:2′,1′-L][1]OXA[4,7,10,13]TETRAAZACYCLOHEXADECIN-20-YL)PROPANAMIDE] ({NH(4-Cl-2-F-phenyl)-CO}-[Phe(3,5-Me2)][aThr]P[Pip]A[Pro(4R-Me)]; ester 2-C)
[1]; mouse, 10 μM
  Mouse (hr): >>48 hr
[2]
  μsol (μg/mL): <0.1 µg/mL
[3]; human, pH 7.4
  Human – 0.94 ± 0.09 h

## Cc1cccc(C[C@H](NC(=O)Nc2ccc3c(c2)OCO3)C(=O)N[C@H]2COC(=O)[C@@H]3C[C@@H](C)CN3C(=O)[C@H](C)NC(=O)[C@@H]3CCCCN3C(=O)[C@@H]3CCCN3C2=O)c1 [Compound 23, (S)-2-(3-(BENZO[D][1,3]DIOXOL-5-YL)UREIDO)-N-((2R,6S,8AS,14AS,20S,23AS)-2,6-DIMETHYL-5,8,14,19,23-PENTAOXOOCTADECAHYDRO-1H,5H,14H,19H-PYRIDO[2,1-I]DIPYRROLO[2,1-C:2′,1′-L][1]OXA[4,7,10,13]TETRAAZACYCLOHEXADECIN-20-YL)-3-(M-TOLYL)PROPANAMIDE]
[1]; mouse, 10 μM
  Mouse: 27.31 h
[2]
  μsol (μM): 3.0 ± 0.0 µM
  solubility kinetic at 10 min: 1.7 ± 0.1 µM (≈ 1.36 µg/mL)
[3]; human, pH 7.4
  Human – 30.2 ± 11.7 h

## Cc1cccc(C[C@H](NC(=O)Nc2ccc(Cl)cc2F)C(=O)N[C@H]2COC(=O)[C@@H]3C[C@@H](C)CN3C(=O)[C@H](C)NC(=O)[C@@H]3CN(C)CCN3C(=O)[C@@H]3CCCN3C2=O)c1 [Compound 13, (S)-2-(3-(4-CHLORO-2-FLUOROPHENYL)UREIDO)-3-(M-TOLYL)-N-((6AS,12S,15AS,17R,21S,23AS)-2,17,21-TRIMETHYL-6,11,15,20,23-PENTAOXOOCTADECAHYDRO-2H,6H,11H,15H-PYRAZINO[2,1-I]DIPYRROLO[2,1-C:2′,1′-L][1]OXA[4,7,10,13]TETRAAZACYCLOHEXADECIN-12-YL)PROPANAMIDE] ({NH(4-Cl-2-F-phenyl)-CO}-[Phe(3-Me)]SP[Piperazine(2S-CO,4-Me)]A[Pro(4R-Me)]; ester 2-C)
[1]; mouse, 10 μM
  Mouse: 10.74 ± 0.8 h
[2]
  μsol (μM): 38.3 ± 2.2 µM
  solubility kinetic at 10 min: 40.1 ± 4.6 µM (≈ 33.1 µg/mL)
[3]; human, pH 7.4
  Human – 0.38 ± 0.04 h

## Cc1cccc(C[C@H](NC(=O)Nc2ccc3c(c2)OCCO3)C(=O)N[C@H]2COC(=O)[C@@H]3C[C@@H](C)CN3C(=O)[C@H](C)NC(=O)[C@@H]3CCCCN3C(=O)[C@@H]3CCCN3C2=O)c1 [Compound 22, (S)-2-(3-(2,3-DIHYDROBENZO[B][1,4]DIOXIN-6-YL)UREIDO)-N-((2R,6S,8AS,14AS,20S,23AS)-2,6-DIMETHYL-5,8,14,19,23-PENTAOXOOCTADECAHYDRO-1H,5H,14H,19H-PYRIDO[2,1-I]DIPYRROLO[2,1-C:2′,1′-L][1]OXA[4,7,10,13]TETRAAZACYCLOHEXADECIN-20-YL)-3-(M-TOLYL)PROPANAMIDE]
[1]; mouse, 10 μM
  Mouse: 46.15 h
[2]
  μsol (μM): 7.6 ± 0.3 µM
  solubility kinetic at 10 min: 3.3 ± 0.2 µM (≈ 2.69 µg/mL)
[3]; human, pH 7.4
  Human – 3.57 ± 0.52 h

## Cc1cccc(C[C@H](NC(=O)Nc2ccc(Cl)c(F)c2)C(=O)N[C@@H]2C(=O)N3CCC[C@H]3C(=O)N3CCCC[C@H]3C(=O)N[C@@H](C)C(=O)N3C[C@H](C)C[C@H]3C(=O)O[C@H]2C)c1 [Compound 35, (S)-2-(3-(4-CHLORO-3-FLUOROPHENYL)UREIDO)-3-(M-TOLYL)-N-((2R,6S,8AS,14AS,20S,21S,23AS)-2,6,21-TRIMETHYL-5,8,14,19,23-PENTAOXOOCTADECAHYDRO-1H,5H,14H,19H-PYRIDO[2,1-I]DIPYRROLO[2,1-C:2′,1′-L][1]OXA[4,7,10,13]TETRAAZACYCLOHEXADECIN-20-YL)PROPANAMIDE] ({X2-CO}-[Phe(3-Me)][aThr]P[Pip]A[Pro(4R-Me)]; ester 2-C)
[1]; mouse, 10 μM
  Mouse: >50 h
[2]
  μsol (μM): 0.9 ± .95 µM
  solubility kinetic at 10 min: 0.002 ± 0.002 µM (≈ 0.00165 µg/mL)
[3]; human, pH 7.4
  Human – 1.14 ± .145 h

## Cc1cccc(C[C@H](NC(=O)Nc2ccc(Cl)cc2F)C(=O)N[C@H]2COC(=O)[C@@H]3C[C@@H](C)CN3C(=O)[C@H](C)NC(=O)[C@@H]3CCCCN3C(=O)[C@@H]3C[C@@H](O)CN3C2=O)c1 [Compound 10]
[1]; mouse, 10 μM
  Mouse: >50 h
[2]
  μsol (μM): 26.0 ± 0.9 µM
  solubility kinetic at 10 min: 27.04 ± 0.25 µM (≈ 22.3 µg/mL)
[3]; human, pH 7.4
  Human – 0.29 ± 0.04 h

## Cc1ccc(NC(=O)N[C@@H](Cc2cccc(C)c2)C(=O)N[C@H]2COC(=O)[C@@H]3C[C@H](C)CN3C(=O)[C@H](C)NC(=O)[C@@H]3CCCCN3C(=O)[C@@H]3CCCN3C2=O)cc1 (stereo in doubt) [Compound 43, (S)—N-((2S,6S,8AS,14AS,20S,23AS)-2,6-DIMETHYL-5,8,14,19,23-PENTAOXOOCTADECAHYDRO-1H,5H,14H,19H-PYRIDO[2,1-I]DIPYRROLO[2,1-C:2′,1′-L][1]OXA[4,7,10,13]TETRAAZACYCLOHEXADECIN-20-YL)-3-(M-TOLYL)-2-(3-(P-TOLYL)UREIDO)PROPANAMIDE]
[1]; [4]
  Mouse: 21.9 h
[2]; [5]
  solubility kinetic at 10 min: 42.2 ± 0.9 µM (≈ 32.6 µg/mL)
[2]; solubility
  μsol (μM): 49.8 ± 2.5 µM
[3]; [6]
  Human – 1.36 ± 0.14 h

## Cc1cccc(C[C@H](NC(=O)Nc2ccc(Cl)cc2F)C(=O)N[C@@H]2C(=O)N3CCC[C@H]3C(=O)N3CCS(=O)(=O)C[C@H]3C(=O)N[C@@H](C)C(=O)N3C[C@H](C)C[C@H]3C(=O)O[C@H]2C)c1 [Compound 40, (S)-2-(3-(4-CHLORO-2-FLUOROPHENYL)UREIDO)-3-(M-TOLYL)-N-((6AS,12S,13S,15AS,17R,21S,23AR)-13,17,21-TRIMETHYL-2,2-DIOXIDO-6,11,15,20,23-PENTAOXOOCTADECAHYDRO-6H,11H,15H-DIPYRROLO[2,1-C:2′,1′-L][1,4]THIAZINO[3,4-I][1]OXA[4,7,10,13]TETRAAZACYCLOHEXADECIN-12-YL)PROPANAMIDE] ({NH(4-Cl-2-F-phenyl)-CO}-[Phe(3-Me)][aThr]P[X6]A[Pro(4R-Me)]; ester 2-C)
[1]; mouse, 10 μM
  Mouse: >50 h
[2]
  μsol (μM): 0 µM
  solubility kinetic at 10 min: 2.21 ± 0.208 µM (≈ 1.93 µg/mL)
[3]; human, pH 7.4
  Human – 0.62 ± .623 h

## Cc1cccc(C[C@H](NC(=O)Nc2ccc(Cl)cc2F)C(=O)N[C@@H]2C(=O)N3C[C@H](O)C[C@H]3C(=O)N3CCCC[C@H]3C(=O)N[C@@H](C)C(=O)N3C[C@H](C)C[C@H]3C(=O)O[C@H]2C)c1 [Compound 6, (S)-2-(3-(4-CHLORO-2-FLUOROPHENYL)UREIDO)-N-((2R,6S,8AS,14AS,16R,20S,21S,23AS)-16-HYDROXY-2,6,21-TRIMETHYL-5,8,14,19,23-PENTAOXOOCTADECAHYDRO-1H,5H,14H,19H-PYRIDO[2,1-I]DIPYRROLO[2,1-C:2′,1′-L][1]OXA[4,7,10,13]TETRAAZACYCLOHEXADECIN-20-YL)-3-(M-TOLYL)PROPANAMIDE] ({NH(4-Cl-2-F-phenyl)-CO}-[Phe(3-Me)][aThr][Hyp][Pip]A[Pro(4R-Me)]; ester 2-C)
[1]; mouse, 10 μM
  Mouse: >50 h
[2]
  μsol (μM): 13.9 ± 1.4 µM
  solubility kinetic at 10 min: 12.6 ± 0.3 µM (≈ 10.6 µg/mL)
[3]; human, pH 7.4
  Human – 4.83 ± 1.5 h

## Cc1cccc(C[C@H](NC(=O)Nc2ccc(Cl)cc2F)C(=O)N[C@@H]2C(=O)N3CCC[C@H]3C(=O)N3CCCC[C@H]3C(=O)N[C@@H](C)C(=O)N3C[C@H](C)C[C@H]3C(=O)O[C@H]2C)c1 [Compound 3, (S)-2-(3-(4-CHLORO-2-FLUOROPHENYL)UREIDO)-3-(M-TOLYL)-N-((2R,6S,8AS,14AS,20S,21S,23AS)-2,6,21-TRIMETHYL-5,8,14,19,23-PENTAOXOOCTADECAHYDRO-1H,5H,14H,19H-PYRIDO[2,1-I]DIPYRROLO[2,1-C:2′,1′-L][1]OXA[4,7,10,13]TETRAAZACYCLOHEXADECIN-20-YL)PROPANAMIDE] ({NH(4-Cl-2-F-phenyl)-CO}-[Phe(3-Me)][aThr]P[Pip]A[Pro(4R-Me)]; ester 2-C)
[1]; mouse, 10 μM
  Mouse (hr): >>48 hr
[2]
  μsol (μM): 2.2 ± 0.1 µM
  μsol (μg/mL): 1.8 ± 0.1 µg/mL
  solubility kinetic at 10 min: 0.5 µM (≈ 0.412 µg/mL)
[3]; human, pH 7.4
  Human – 4.68 ± 0.78 h
